# Tests used:
# [1] = biological target: human CB1 receptors (Homo sapiens (Human), UniProt P21554); assay: cAMP assay, CHO cells expressing human CB1 receptors; format: cell-based; details: CHO cells expressing human CB1, cAMP; read-out: human CB1 EC50
# Procedure, shortened: (§1)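 EC50 values come from a TR-FRET cAMP read-out (standard curve 10 μM–0.13 nM cAMP) after 30 min compound exposure at 30 °C in IBMX (1 mM)-containing Krebs Ringer bicarbonate buffer, using CHO cells carrying human CB1 or CB2 receptors.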
# [2] = biological target: human CB2 receptors (Homo sapiens (Human), UniProt P34972); assay: cAMP assay, CHO cells expressing human CB2 receptors; format: cell-based; details: CHO cells expressing human CB2, cAMP; read-out: human CB2 EC50
# Procedure, shortened: as §1
# Sequence of human CB1 receptors (P21554 whole entry): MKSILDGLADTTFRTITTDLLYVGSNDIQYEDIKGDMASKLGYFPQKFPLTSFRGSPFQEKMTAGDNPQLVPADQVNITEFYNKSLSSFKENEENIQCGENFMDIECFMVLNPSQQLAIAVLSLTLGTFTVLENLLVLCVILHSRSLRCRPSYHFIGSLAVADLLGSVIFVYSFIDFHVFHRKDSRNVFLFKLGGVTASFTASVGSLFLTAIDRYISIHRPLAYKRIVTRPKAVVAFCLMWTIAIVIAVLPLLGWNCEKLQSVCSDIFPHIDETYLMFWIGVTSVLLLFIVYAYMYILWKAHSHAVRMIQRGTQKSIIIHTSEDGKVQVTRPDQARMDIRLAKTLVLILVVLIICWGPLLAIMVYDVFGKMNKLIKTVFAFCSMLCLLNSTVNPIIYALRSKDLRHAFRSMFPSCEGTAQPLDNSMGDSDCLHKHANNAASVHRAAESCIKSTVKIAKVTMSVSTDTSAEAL
# Sequence of human CB2 receptors (P34972 whole entry): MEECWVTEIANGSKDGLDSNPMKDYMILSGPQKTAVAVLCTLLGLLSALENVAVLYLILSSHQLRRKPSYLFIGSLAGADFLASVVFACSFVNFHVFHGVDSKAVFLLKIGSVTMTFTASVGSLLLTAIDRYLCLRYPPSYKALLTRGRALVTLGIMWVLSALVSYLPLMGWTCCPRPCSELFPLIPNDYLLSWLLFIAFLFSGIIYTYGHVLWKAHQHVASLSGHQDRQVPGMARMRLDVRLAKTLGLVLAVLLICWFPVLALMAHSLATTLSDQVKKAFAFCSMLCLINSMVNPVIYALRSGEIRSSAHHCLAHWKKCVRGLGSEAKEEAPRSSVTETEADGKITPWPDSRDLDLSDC
SMILES,EC50 [1],EC50 [2]
"O=C(N[C@@H](CC1CC1)c1nccs1)c1ccc(N2CC(F)(F)C2)c(OCC2CC2)n1 [Example 146, 6-Cyclopropylmethoxy-5-(3,3-difluoro-azetidin-1-yl)-pyridine-2-carboxylic acid ((S)-2-cyclopropyl-1-thiazol-2-yl-ethyl)-amide]",> 10000 nM,36.6 nM
"Cc1ccc(C(=O)N[C@@H](CC(C)C)c2nccs2)nc1OCC1CC1 [Example 64, 6-Cyclopropylmethoxy-5-methyl-pyridine-2-carboxylic acid ((S)-3-methyl-1-thiazol-2-yl-butyl)-amide]",1460 nM,18.9 nM
"Cc1nc([C@](C)(CC2CC2)NC(=O)c2ccc(C3CC3)c(OCC3CC3)n2)no1 [Example 357, 5-Cyclopropyl-6-cyclopropylmethoxy-pyridine-2-carboxylic acid [(+)-2-cyclopropyl-1-methyl-1-(5-methyl-[1,2,4]oxadiazol-3-yl)-ethyl]-amide]",199 nM,1.5 nM
"Cc1nc([C@H](CC2CC2)NC(=O)c2ccc(C3CC3)c(OCC3CC3)n2)no1 [Example 163, 5-Cyclopropyl-6-cyclopropylmethoxy-pyridine-2-carboxylic acid [(S)-2-cyclopropyl-1-(5-methyl-[1,2,4]oxadiazol-3-yl)-ethyl]-amide]",> 10000 nM,14.5 nM
"Cc1nc(C2(NC(=O)c3ccc(C4CC4)c(OCC4CC4)n3)CCC2)no1 [Example 171, 5-Cyclopropyl-6-(cyclopropylmethoxy)-N-(1-(5-methyl-1,2,4-oxadiazol-3-yl)cyclobutyl)picolinamide]",> 10000 nM,46.8 nM
"COC(=O)[C@@H](NC(=O)c1ccc(C2CC2)c(OCC2CC2)n1)C(C)(C)C [Example 239, (S)-2-[(5-Cyclopropyl-6-cyclopropylmethoxy-pyridine-2-carbonyl)-amino]-3,3-dimethyl-butyric acid methyl ester]",91.9 nM,1.1 nM
"CC(C)C[C@H](NC(=O)c1ccc(C2(O)COC2)c(OCC2CC2)n1)C(N)=O [Example 150, 6-Cyclopropylmethoxy-5-(3-hydroxy-oxetan-3-yl)-pyridine-2-carboxylic acid ((S)-1-carbamoyl-3-methyl-butyl)-amide]",> 10000 nM,157 nM
"Cc1ccc(C(=O)NN2CCCCC2)nc1OCC1CC1 [Example 47, 6-Cyclopropylmethoxy-5-methyl-pyridine-2-carboxylic acid piperidin-1-ylamide]",> 10000 nM,138 nM
"CC(C)C[C@H](NC(=O)c1ccc(N2CC(F)(F)C2)c(OCC2CC2)n1)C(N)=O [Example 132, 6-Cyclopropylmethoxy-5-(3,3-difluoro-azetidin-1-yl)-pyridine-2-carboxylic acid ((S)-1-carbamoyl-3-methyl-butyl)-amide]",1130 nM,0.8 nM
"CC(C)(C)C(NC(=O)c1ccc(C2CC2)c(OCC2CC2)n1)C(N)=O (centres unmarked) [Example 179, N-(1-Amino-3,3-dimethyl-1-oxobutan-2-yl)-5-cyclopropyl-6-(cyclopropylmethoxy)picolinamide]",514 nM,3.8 nM
"Cc1nc([C@H](CC2CC2)NC(=O)c2cccc(-c3cccc(F)c3)n2)no1 [Example 347, 6-(3-Fluoro-phenyl)-pyridine-2-carboxylic acid [(S)-2-cyclopropyl-1-(5-methyl-[1,2,4]oxadiazol-3-yl)-ethyl]-amide]",> 10000 nM,50 nM
"Cc1nc(C(C)(C)NC(=O)c2cccc(-c3ccc(Cl)cc3)n2)no1 [Example 3, 6-(4-Chloro-phenyl)-pyridine-2-carboxylic acid [1-methyl-1-(5-methyl-[1,2,4]oxadiazol-3-yl)-ethyl]-amide]",> 10000 nM,341 nM
"CC(C)(NC(=O)c1ccc(N2CC(F)(F)C2)c(OCC(F)(F)F)n1)c1nccs1 [Example 288, 5-(3,3-Difluoro-azetidin-1-yl)-6-(2,2,2-trifluoro-ethoxy)-pyridine-2-carboxylic acid (1-methyl-4-thiazol-2-yl-ethyl)-amide]",> 10000 nM,163 nM

# Source: patent publication US9290451B2 (Hoffmann-La Roche Inc., priority 2011, dated 2016)
